Reference: patent US5541163A, “Renin inhibiting N-(2-amino-2-oxoethyl)butanediamide derivatives” (Bio-Mega/Boehringer Ingelheim Research Inc., priority 1993, dated 1996)

Target: T1, human renin (Homo sapiens, UniProt P00797)
T1 construct: A human plasma pool is used as the source of both the substrate (angiotensinogen) and the enzyme (renin); from tissue; host or cells: human plasma pool
T1 sequence (P00797 67-406): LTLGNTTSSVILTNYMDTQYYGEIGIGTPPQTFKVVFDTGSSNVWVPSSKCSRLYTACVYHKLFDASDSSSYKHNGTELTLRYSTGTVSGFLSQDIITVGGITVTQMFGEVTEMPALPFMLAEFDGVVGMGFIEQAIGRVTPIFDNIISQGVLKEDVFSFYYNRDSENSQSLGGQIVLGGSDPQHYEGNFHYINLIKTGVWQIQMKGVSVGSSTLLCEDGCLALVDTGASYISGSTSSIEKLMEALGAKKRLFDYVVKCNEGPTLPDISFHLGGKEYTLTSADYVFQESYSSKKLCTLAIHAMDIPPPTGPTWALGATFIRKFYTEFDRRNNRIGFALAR
Assay: Plasma renin assay (inhibition of human renin, angiotensin I by RIA)
Type: biochemical
Settings: human plasma pool, pH 6.0, 2 h incubation at 37°
Protocol: The assay is performed as follows: The test compound (i.e. the inhibitor) is dissolved in dimethylsulfoxide (1 mM stock solution) and diluted with an aqueous buffer solution of 270 mM 2-(N-morpholino)ethanesulfonic acid and 1% human serum albumin (pH 5.85, also containing dimercaprol and 8-hydroxyquinoline sulfate in accordance with the instructions of the RIA kit noted below) to give an assay mixture in which the final dimethylsulfoxide content is 1% (v/v).
A human plasma pool is used as the source of both the substrate (angiotensinogen) and the enzyme (renin). The reaction is initiated by the addition of 50 μL of human plasma pool to 50 μL of various concentrations of inhibitor in the 1% dimethylsulfoxide assay buffer. The plasma renin activity is measured by the amount of angiotensin I generated at pH 6.0 following a 2 h incubation at 37°.
Quantitation of angiotensin I is performed by radioimmunoassay (RIA kit from New England Nuclear-Dupont, Mississauga, ON, Canada). The enzymatic activity of renin is expressed in ng of angiotensin I generated (/mL/2 h). The extent of inhibition of the reaction is determined from the amount of angiotensin I generated in reference to a control prepared without inhibitor. Nonlinear regression analysis is used to calculate the IC50 values, i.e. the molar concentration of the test compound required to cause a 50% inhibition of the enzyme activity.

Structure (SMILES)	IC50 [nM]
CC(C)C[C@H](O)[C@H](O)[C@H](CC1CCCCC1)NC(=O)[C@@H](CC(=O)N(CC(=O)N(C)CCN(C)C)[C@@H](C)c1ccccc1)CC1CC1 [Compound 23, N^4 -{2-{[2-(dimethylamino)ethyl]methylamino}-2-oxoethyl}-N^4-[1(S)-phenylethyl]-N^1-[1(S)-(cyclohexylmethyl)-2(R),3(S)-dihydroxy-5-methylhexyl]-2(R)-(cyclopropylmethyl)-butanediamide]	26
CC(C)C[C@H](O)[C@H](O)[C@H](CC1CCCCC1)NC(=O)[C@@H](CC(=O)N(CC(=O)N(C)C)[C@@H](C)C1CCCCC1)CC1CC1 [Compound 38, N^4-(1(S)-cyclohexylethyl)-N^4-[2-(dimethylamino)-2-oxoethyl]-N^1-[1(S)-(cyclohexylmethyl)-2(R),3(S)-dihydroxy-5-methylhexyl]-2(R)-(cyclopropylmethyl)butanediamide]	8.3
C[C@@H](c1ccccc1)N(CC(=O)N(C)C)C(=O)C[C@@H](Cc1csc(N)n1)C(=O)N[C@@H](CC1CCCCC1)[C@@H](O)[C@@H]1CC(C)(C)N(C)C1=O [Compound 44, N^4-[2-(dimethylamino)-2-oxoethyl]-N^4-[1(S)-phenylethyl]-N^1-[1(S)-(cyclohexylmethyl)-2(S)-hydroxy-2-(1,5,,5-trimethyl-2-oxopyrrolidin-3(S)-yl)ethyl]-2(R)-[(2-amino-4-thiazolyl)methyl]butanediamide]	2.4
CCC(CC)CN(CC(=O)N(C)CCc1ccccn1)C(=O)C[C@@H](Cc1csc(N)n1)C(=O)N[C@@H](CC1CCCCC1)[C@@H](O)[C@@H](O)CC(C)C [Compound 84, N^4-(2-ethylbutyl)-N^4 -{2-{methyl[2-(2-pyridinyl)ethyl]amino}-2-oxoethyl}-N^1-[1(S)-(cyclohexylmethyl)-2(R),3(S)-dihydroxy-5-methylhexyl]-2(R)-[(2-amino-4-thiazolyl)methyl]-butanediamide]	3
CC(C)C[C@H](O)[C@H](O)[C@H](CC1CCCCC1)NC(=O)[C@@H](CC(=O)N(CC(=O)N(C)C)C[C@H](C)c1ccccc1)CC1CC1 [Compound 19, N^4-[2-(dimethylamino)-2-oxoethyl]-N^4-[2(R)-phenylpropyl]-N^1-[1(S)-(cyclohexylmethyl)-2(R),3(S)-dihydroxy-5-methylhexyl]-2(R)-(cyclopropylmethyl)butanediamide]	69
CC(C)C[C@H](O)[C@H](O)[C@H](CC1CCCCC1)NC(=O)[C@@H](CC(=O)N(CC(=O)N(C)CCc1ccccn1)Cc1ccccc1F)Cc1csc(N)n1 [Compound 82, N^4-[(2-fluorophenyl)methyl]-N^4 -{2-{methyl[2-(2-pyridinyl)ethyl]-amino}-2-oxoethyl}-N^1-[1(S)-(cyclohexylmethyl)-2(R),3(S)-dihydroxy-5-methylhexyl]-2(R)-[(2-amino-4-thiazolyl)methyl]butanediamide]	3
CC(C)C[C@H](O)[C@H](O)[C@H](CC1CCCCC1)NC(=O)[C@@H](CC(=O)N(CC(=O)N(C)CCc1ccccn1)Cc1cccs1)Cc1csc(N)n1 [Compound 72, N^4 -{2-{methyl[2-(2-pyridinyl)ethyl]-amino}-2-oxoethyl}-N^4-(2-thienylmethyl)-N^1-[1(S)-(cyclohexylmethyl)-2(R),3(S)-dihydroxy-5-methylhexyl]-2(R)-[(2-amino-4-thiazolyl)methyl]-butanediamide]	2
C[C@@H](c1ccccc1)N(CC(=O)N(C)C)C(=O)C[C@@H](CC1CC1)C(=O)N[C@@H](CC1CCCCC1)[C@@H](O)[C@@H]1CC(C)(C)N(C)C1=O [Compound 42, N^4-[2-(dimethylamino)-2-oxoethyl]-N^4-[1(S)-phenylethyl]-N^1-[1(S)-(cyclohexylmethyl)-2(S)-hydroxy-2-(1,5,5-trimethyl-2-oxopyrrolidin-3(S)-yl)ethyl]-2(R)-(cyclopropylmethyl)butanediamide]	55
CC(C)C[C@H](O)[C@H](O)[C@H](CC1CCCCC1)NC(=O)[C@@H](CC(=O)N(CC(=O)N(C)C)Cc1ccccn1)Cc1csc(N)n1 [Compound 64, N^4-[2-(dimethylamino)-2-oxoethyl]-N^4-(2-pyridinylmethyl)-N^1-[1(S)-(cyclohexylmethyl)-2(R),3(S)-dihydroxy-5-methylhexyl]-2(R)-[(2-amino-4-thiazolyl)methyl]-butanediamide]	10
CC(C)C[C@H](O)[C@H](O)[C@H](CC1CCCCC1)NC(=O)[C@@H](CC(=O)N(CC(=O)N(C)C)Cc1cccnc1)CC1CC1 [Compound 14, N^4-[2-(dimethylamino)-2-oxoethyl]-N^4-(3-pyridinylmethyl)-N^1-[1(S)-(cyclohexylmethyl)-2(R),3(S)-dihydroxy-5-methylhexyl]-2(R)-(cyclopropylmethyl)butanediamide]	350
CC(C)C[C@H](O)[C@H](O)[C@H](CC1CCCCC1)NC(=O)[C@@H](CC(=O)N(CC(=O)N(C)C)Cc1ccccc1)Cc1csc(N)n1 [Compound 52, N^4-benzyl-N^1-[2-(dimethylamino)-2-oxoethyl)-N^1-[1(S)-(cyclohexylmethyl)-2(R),3(S)-dihydroxy-5-methylhexyl]-2(R)-[(2-amino-4-thiazolyl)-methyl]butanediamide]	3
CCC[C@H](CC(=O)N(CC(=O)N(C)CCc1ccccn1)Cc1ccccc1)C(=O)N[C@@H](CC1CCCCC1)[C@@H](O)[C@@H](O)CC(C)C [Compound 26, N^4-benzyl-N^4 -{2-{methyl[2-(2-pyridinyl)ethyl]amino}-2-oxoethyl}-N^1-[1(S)-(cyclohexylmethyl)-2(R),3(S)-dihydroxy-5-methylhexyl]-2(R)-propylbutanediamide]	29
CC(C)C[C@H](O)[C@H](O)[C@H](CC1CCCCC1)NC(=O)[C@@H](CC(=O)N(CC(=O)N(C)C(C)(C)C)Cc1ccccc1)CC1CC1 [Compound 5, N^4-benzyl-N^4 -{2-[methyl(1,1-dimethylethyl)amino]-2-oxoethyl}-N^1-[1(S)-(cyclohexylmethyl)-2(R),3(S)-dihydroxy-5-methylhexyl]-2(R)-(cyclopropylmethyl)butanediamide]	290

The next compounds have a lower IC50 than those just listed; values first:

IC50 [nM]	Structure (SMILES)
0.9	CC(C)C[C@H](O)[C@H](O)[C@H](CC1CCCCC1)NC(=O)[C@@H](CC(=O)N(CC(=O)N(C)C)CC1CCCCC1)Cc1csc(N)n1 [Compound 48, N^4-(cyclohexylmethyl)-N^4-[2-(dimethylamino)-2-oxoethyl]-N^1-[1(S)-(cyclohexylmethyl)-2(R),3(S)-dihydroxy-5-methylhexyl]-2(R)-[(2-amino-4-thiazolyl)methyl]butanediamide]
1	CC(C)C[C@H](O)[C@H](O)[C@H](CC1CCCCC1)NC(=O)[C@@H](CC(=O)N(CC(=O)N(C)CCc1ccccn1)CC1CCCC1)Cc1csc(N)n1 [Compound 71, N^4-(cyclopentylmethyl)-N^4 -{2-{methyl[2-(2-pyridinyl)ethyl]-amino}-2-oxoethyl]-N^1-[1(S)-(cyclohexylmethyl)-2(R),3(S)-dihydroxy-5-methylhexyl]-2(R)-[(2-amino-4-thiazolyl)methyl]butanediamide]
1	CC(C)C[C@H](O)[C@H](O)[C@H](CC1CCCCC1)NC(=O)[C@@H](CC(=O)N(CC(=O)N(C)CCc1ccccn1)Cc1ccccc1)Cc1csc(N)n1 [Compound 57, N^4-benzyl-N^4 -{2-{methyl[2-(2-pyridinyl)ethyl]amino}-2-oxoethyl}-N^1-[1(S)-(cyclohexylmethyl)-2(R),3(S)-dihydroxy-5-methylhexyl]-2(R)-[(2-amino-4-thiazolyl)methyl]-butanediamide]
0.6	CC(C)C[C@H](O)[C@H](O)[C@H](CC1CCCCC1)NC(=O)[C@@H](CC(=O)N(CC(=O)N(C)C)CC1CCCCCC1)Cc1csc(N)n1 [Compound 78, N^4-(cycloheptylmethyl)-N^4-[2-(dimethylamino)-2-oxoethyl]-N^1-[1(S)-(cyclohexylmethyl)-2(R),3(S)-dihydroxy-5-methylhexyl]-2(R)-[(2-amino-4-thiazolyl)methyl]butanediamide]
1.6	CC(C)C[C@H](O)[C@H](O)[C@H](CC1CCCCC1)NC(=O)[C@@H](CC(=O)N(CC(=O)N(C)C)CC1CCCCC1)Cc1nccs1 [Compound 37, N^4-(cyclohexylmethyl)-N^4-[2-(dimethylamino)-2-oxoethyl]-N^1-[1(S)-(cyclohexylmethyl)-2(R),3(S)-dihydroxy-5-methylhexyl]-2(S)-(2-Thiazolylmethyl)butanediamide]
1.5	CC(C)C[C@H](O)[C@H](O)[C@H](CC1CCCCC1)NC(=O)[C@@H](CC(=O)N(CC(=O)N1CCOCC1)CC1CCCCC1)Cc1csc(N)n1 [Compound 49]
